Measurements published in patent publication US9433686B2, “Methods for treating castration resistant prostate cancer and metastasis by reducing B-cell number and/or function” (The Regents of the University of California, priority 2011, dated 2016).

How the values were obtained:
STAT3 [1] = experiment: STAT3 phosphorylation in myc-CaP tumors after castration (immunohistochemistry); type: in vivo, FVB mice; conditions: phospho-STAT3 staining
Description: FIG. 14. STAT3 activation and its role in CR-CaP emergence. A,B WT+Ikkβ^F/F and WT+Ikkβ^Δ/Δ radiation chimeras (n=10 each group) bearing myc-CaP allografts were established as above and injected with poly(IC) to delete IKKβ[…] in BMDC before castration or sham operation. After one month, mice were sacrificed for analysis. A. Lymphocytes were isolated from indicated tissues and analyzed for IKKβ expression. B. Tumor samples were immunoblotted to determine expression and phosphorylation of indicated signaling proteins. C,D FVB mice bearing myc-CaP tumors were castrated. Starting one day before castration, the mice (n=10 per group) were injected twice daily with vehicle or AG490, an inhibitor of STAT3 phosphorylation. C. One week after castration, tumors were collected, paraffin-embedded, sectioned and stained with phospho-STAT3 antibody. D. Tumor volume was measured every 2-3 days as above. Results are averages±s.e.m. P values were determined and are indicated as above.
FIG. 23. LTβ is required for IKKα nuclear localization and STAT3 phosphorylation. Mice carrying Myc-CaP tumors were castrated and treated with vehicle or LTβR-Ig as described above. Paraffin-embedded sections were analyzed for IKKα nuclear localization and STAT3 phosphorylation.
Mouse prostate and CaP tissues and dissected metastatic tumors were immersed in 10% neutral buffered formalin before sectioning and paraffin embedding. […]

IKK = experiment: IκBα phosphorylation in PMA-stimulated Myc-CaP cells; type: cell-based, mouse; conditions: 1 hr pre-treatment, AG490 100 μM, PMA 10 ng/ml 10 min
Method: (§1) FIG. 15. Selectivity of IKKβ and STAT3 phosphorylation inhibitors. A. Myc-CaP cells were cultured to 60% confluency and pre-treated for 1 hr with AG490 (100 μM) or ML120B (20 μM), followed by stimulation with PMA (10 ng/ml) for 10 min. Cells were collected and IκBα phosphorylation was analyzed. B. Myc-CaP cells were pre-treated with AG490 or ML120B and after 1 hr, were stimulated with IL-6 (20 ng/ml) for 30 min. Cells were collected and STAT3 phosphorylation was analyzed by immunoblotting.
(§2) Total tissue RNA was prepared using RNAeasy (Qiagen). Quantitative PCR was performed as described^38. Cells and tumors were lysed and analyzed by SDS-polyacrylamide gel electrophoresis and immunoblotting^38 with antibodies to histone H3, α-tubulin, STAT3 (Santa Cruz Biotechnology), ERK, phospho-ERK, AKT, phospho-AKT, phospho-STAT3 (Cell Signaling). Nuclear extracts were prepared and analyzed for NF-κB DNA-binding as described^39.

myc-CaP tumors = experiment: CR-CaP re-growth (tumor volume) of s.c. myc-CaP allografts after castration; type: in vivo, FVB mice; conditions: castrated mice bearing s.c. myc-CaP tumors
Method: FIG. 4. IKKβ-dependent lymphotoxin production by tumor-infiltrating B cells stimulates IKKα-dependent androgen-free survival. A. RNA from splenic B cells of Ikkβ^F/F and Ikkβ^Δ/Δ mice was analyzed for LTα and LTβ expression as above. Results are averages±s.d. (n=3). B. Lethally irradiated FVB males were reconstituted with BM from B-Ltβ^−/− or T-Ltβ^−/− mice (n=6 per group). After 8 weeks, myc-CaP tumors were established, mice were castrated and tumor volume was measured as above. Results are averages±s.e.m. C. FVB mice (n=6 each group) bearing myc-CaP tumors were castrated and given hIgG or LTβR-Ig (100 μg) every 5 days, starting 4 days before castration. Tumor volume was measured as above. Results are averages±s.e.m. […] Mice were castrated and tumor volume was measured. […] After 6 hrs, the cells were cultured with or without flutamide (10 μM) in the absence or presence of LTα2β1, and cell number was determined. […] After 12 hrs, cells were stimulated for 1 hr with LTα2β1, collected, divided into cytosolic (C) and nuclear (N) fractions and IKKα and histone H3 distribution was determined. In A, B, C, D and E, P values were determined and are indicated as above.
FIG. 8. […] Five months later, mice were sacrificed and prostate tumor weight and incidence of lymph node, lung and liver metastases were determined. […] Tumor volume in above mice was measured every 2-3 days. […] Tumor volume was measured as above. […]

STAT3 [2] = experiment: STAT3 phosphorylation in IL-6-stimulated Myc-CaP cells (immunoblotting); type: cell-based, mouse; conditions: 1 hr pre-treatment, IL-6 20 ng/ml 30 min
Method: as §1, §2

Compound | STAT3 activation (phosphorylation) in CaP cells of tumors (STAT3 [1]) | IKK activation (IκBα phosphorylation) (IKK) | CR-CaP growth / appearance after castration (tumor volume) (myc-CaP tumors) | STAT3 activation (phosphorylation) (STAT3 [2])
N#C/C(=C/c1ccc(O)c(O)c1)C(=O)NCc1ccccc1 [A490] | inhibitable | did not inhibit | delayed | 
COc1c(Cl)cc2c([nH]c3cnccc32)c1NC(=O)c1cccnc1C [ML120B, N-(6-chloro-7-methoxy-9H-β-carbolin-8-yl)-2-methylnicotinamide] |  |  |  | did not inhibit
